Activity calls are given as the source filed them.
Key:
H9c2 = experiment: cells; assay type: functional, cell-based; conditions: Rattus norvegicus, H9c2, Myocardium;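 also: confirmatory concentration-response retest of ultra-high-throughput screening hits for modulation of myocardial damage; cell death induced by hydrogen peroxide oxidative stress; compound pretreatment for 60 min then peroxide exposure for 2 h; potency is for protecting the cells against peroxide damage rather than for killing them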
Beta-galactosidase = Beta-galactosidase (Escherichia coli, UniProt Q8VNN2); experiment: detection-enzyme interference by beta-gal modulators – biochemical, E. coli enzyme, set 3, artefact control for CCR6 antagonist project, dose response (AID 504712); assay type: functional
Vero = experiment: cells; assay type: functional, cell-based; conditions: Chlorocebus sabaeus
[1] = viability of uninfected HEp-2 cells – cell-based, HTS, cytotoxicity control for RSV inhibitor project, dose response (AID 2410); assay type: functional; conditions: human respiratory syncytial virus
[2] = viability loss of HPDE-C7K cells – cell-based, fluorescence, HTS, primary screen (AID 431); assay type: functional; conditions: Homo sapiens
[3] = HPDE-C7 pancreatic duct cell viability loss – fluorescence, HTS (AID 430); assay type: functional, cell-based; conditions: Homo sapiens
[4] = target: T1, Microphthalmia-associated transcription factor (Homo sapiens, UniProt O75030); experiment: reducers of TRPM1 reporter luminescence, concentration series – cell-based, SK-MEL-5, cherry-picked, set 3, MITF inhibitor project, dose response (AID 493073); assay type: functional;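 also: SK-MEL-5 melanoma cells with luciferase driven by the MITF target TRPM1 promoter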
T1 sequence (O75030 whole entry): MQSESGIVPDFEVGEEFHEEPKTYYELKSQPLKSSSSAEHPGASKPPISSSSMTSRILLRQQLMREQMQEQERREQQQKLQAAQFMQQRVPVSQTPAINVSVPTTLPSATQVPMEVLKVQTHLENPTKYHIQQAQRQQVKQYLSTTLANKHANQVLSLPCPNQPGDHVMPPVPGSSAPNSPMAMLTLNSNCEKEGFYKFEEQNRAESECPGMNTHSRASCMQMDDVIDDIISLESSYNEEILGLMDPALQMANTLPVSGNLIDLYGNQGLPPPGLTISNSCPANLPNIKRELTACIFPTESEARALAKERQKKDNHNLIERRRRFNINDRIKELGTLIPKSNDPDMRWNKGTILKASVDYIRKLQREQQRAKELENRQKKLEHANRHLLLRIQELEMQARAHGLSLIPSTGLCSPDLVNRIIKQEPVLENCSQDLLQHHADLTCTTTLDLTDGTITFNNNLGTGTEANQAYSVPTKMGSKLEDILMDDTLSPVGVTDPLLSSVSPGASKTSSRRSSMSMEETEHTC

[5] = Luminescence Cell-Based Dose Retest to Confirm Inhibitors of Cancer Stem Cells. [Related pubchem assays (depositor defined):AID2717, AID2721]; assay type: functional; conditions: Homo sapiens
Bcl-2-related protein A1 = target: T2, Bcl-2-related protein A1 (Mus musculus, UniProt Q07440); assay type: functional;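 also: confirmatory dose–response counterscreen on Bfl-1, used to check hits from a UBC13 polyubiquitin inhibitor campaign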
T2 sequence (Q07440 whole entry): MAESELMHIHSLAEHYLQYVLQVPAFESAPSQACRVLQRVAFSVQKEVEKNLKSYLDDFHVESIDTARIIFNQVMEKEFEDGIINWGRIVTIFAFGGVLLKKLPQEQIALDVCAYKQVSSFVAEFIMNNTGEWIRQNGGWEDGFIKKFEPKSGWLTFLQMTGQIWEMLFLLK

[6] = target: T3, Ubiquitin-conjugating enzyme E2 N (Homo sapiens, UniProt P61088); assay type: functional;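 also: Dose-response confirmation in a TR-FRET assay detecting UBC13-driven polyubiquitin chain formation, inhibition measured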
T3 sequence (P61088 whole entry): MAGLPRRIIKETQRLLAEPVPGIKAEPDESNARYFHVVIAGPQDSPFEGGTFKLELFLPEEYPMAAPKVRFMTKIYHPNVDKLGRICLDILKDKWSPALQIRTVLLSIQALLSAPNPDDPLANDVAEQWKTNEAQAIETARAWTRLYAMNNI

[7] = target: G-protein coupled receptor 55 (Homo sapiens, UniProt Q9Y2T6); experiment: selective activators of receptor GPR55 – imaging, U2OS cells, beta-arrestin-GFP redistribution, primary screen (AID 1961); assay type: functional
[8] = target: DNA dC->dU-editing enzyme APOBEC-3G (Homo sapiens, UniProt Q9HC16); experiment: Dose Response confirmation of small molecule APOBEC3G DNA Deaminase Inhibitors via a fluorescence-based single-stranded DNA deaminase assay. [Related pubchem assays (depositor defined):AID493012, AID493028]; assay type: functional
[9] = target: DNA dC->dU-editing enzyme APOBEC-3A (Homo sapiens, UniProt P31941); experiment: A3A deaminase inhibition for selectivity – biochemical, dose response (AID 504722); assay type: functional
[10] = target: Glucose-6-phosphate 1-dehydrogenase (Homo sapiens, UniProt P11413); experiment: inhibition of Homo sapiens G6PD, dose series – biochemical, fluorescence, selectivity assay for P. falciparum G6PD inhibitor project, dose response (AID 504792); assay type: functional
Large T antigen = Large T antigen (Simian virus 40, UniProt P03070); assay type: functional, Betapolyomavirus macacae;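 also: Confirmatory-stage PubChem screen for compounds that inhibit SV40 T antigen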
[11] = target: Eukaryotic translation initiation factor 4E (Mus musculus, UniProt P63073); experiment: blockers of eIF4G binding by eIF4E – biochemical, TR-FRET, dose response (AID 855); assay type: functional;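 also: potency for disrupting eIF4E binding to eIF4GI seen as loss of FRET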
Estrogen receptor = target: T4, Estrogen receptor (Homo sapiens, UniProt P03372);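 also: potency for inhibiting coactivator peptide recruitment to the receptor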
T4 sequence (P03372 whole entry): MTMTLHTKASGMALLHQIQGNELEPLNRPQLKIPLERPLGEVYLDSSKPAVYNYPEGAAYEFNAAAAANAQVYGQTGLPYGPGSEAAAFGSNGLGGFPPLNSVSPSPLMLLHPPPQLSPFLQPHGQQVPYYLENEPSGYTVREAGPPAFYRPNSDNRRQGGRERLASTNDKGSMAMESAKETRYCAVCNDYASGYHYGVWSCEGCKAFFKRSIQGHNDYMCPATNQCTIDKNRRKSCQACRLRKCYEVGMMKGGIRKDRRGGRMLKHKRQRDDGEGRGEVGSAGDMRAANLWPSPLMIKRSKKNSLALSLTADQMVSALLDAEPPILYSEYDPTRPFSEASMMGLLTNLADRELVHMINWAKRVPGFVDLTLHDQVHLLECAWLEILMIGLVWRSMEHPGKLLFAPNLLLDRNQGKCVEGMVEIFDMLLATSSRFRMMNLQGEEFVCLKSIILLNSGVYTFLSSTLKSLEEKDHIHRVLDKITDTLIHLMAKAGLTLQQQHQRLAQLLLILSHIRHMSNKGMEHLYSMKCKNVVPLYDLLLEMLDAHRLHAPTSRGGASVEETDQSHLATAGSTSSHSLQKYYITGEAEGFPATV

[12] = Luminescence Cell-Based Dose Response HTS to Identify Activators of Luciferase Translation or Activity in H4 […] Cells. [Related pubchem assays: 1829 (Project Summary), 1814 (Primary HTS)]; assay type: functional
H4 = experiment: Luminescence Cell-Based Dose Response HTS to Identify Activators of 5'UTR Stem-Loop Driven Prion Protein mRNA Translation in H4 Neuroglioblastoma Cells. [Related pubchem assays: 1829 (Project Summary), 1814 (Primary HTS)]; assay type: functional; conditions: Homo sapiens
[13] = Luminescence Cell-Based Dose Confirmation HTS to Identify Activators of 5'UTR Stem-Loop Driven Alpha-Synuclein mRNA Translation in H4 Neuroglioblastoma Cells. [Related pubchem assays: 1829 (Project Summary), 1814 (Primary HTS)]; assay type: functional
[14] = target: T5, Heat shock factor protein 1 (Mus musculus, UniProt P38532); experiment: enhancement of HSF1-driven luciferase signal – cell-based, NIH3T3, luminescence, dose retest, confirmation (AID 435004); assay type: functional;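 also: stress induced by proteasome inhibitor MG132 added 30 min after compound; luciferase reporter driven by HSF1 response element in NIH3T3 cells; actives raise luminescence as potentiators of the MG132 stress response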
T5 sequence (P38532 whole entry): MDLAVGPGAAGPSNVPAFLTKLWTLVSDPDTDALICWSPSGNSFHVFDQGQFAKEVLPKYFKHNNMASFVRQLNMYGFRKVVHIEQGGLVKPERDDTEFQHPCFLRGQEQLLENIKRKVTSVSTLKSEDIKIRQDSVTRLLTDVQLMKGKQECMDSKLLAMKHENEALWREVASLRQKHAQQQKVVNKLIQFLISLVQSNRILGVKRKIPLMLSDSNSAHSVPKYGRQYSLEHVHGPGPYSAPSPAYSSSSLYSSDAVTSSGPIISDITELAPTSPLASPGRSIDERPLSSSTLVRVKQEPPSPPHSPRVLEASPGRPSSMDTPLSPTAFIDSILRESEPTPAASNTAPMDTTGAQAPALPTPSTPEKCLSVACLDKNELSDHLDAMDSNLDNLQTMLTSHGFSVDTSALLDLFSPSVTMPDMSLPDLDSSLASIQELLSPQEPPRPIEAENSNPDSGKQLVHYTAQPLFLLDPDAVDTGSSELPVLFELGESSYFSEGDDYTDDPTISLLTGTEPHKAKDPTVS

INS1 = experiment: INS-1E survival protection against cytokine death – cell-based, luminescence, retest, dose response (AID 449756); assay type: functional; conditions: Rattus norvegicus;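 also: cell death triggered by IL-1 beta plus TNF-alpha plus IFN-gamma mixture; protective hits raise ATP signal compared with cytokine alone wells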
[15] = viability loss in HeLa cells – cytotoxicity control for MgcRacGAP inhibitor project, dose response (AID 624300); assay type: functional
[16] = non-specific 3'UTR reporter inhibition in Clone20-Shn3RL – cell-based, Renilla luciferase, cherry-picked, counter-screen for Shn3 inhibitor project, dose response (AID 624133); assay type: functional
[17] = microbe, parasite or virus in culture; assay type: functional; conditions: Mycobacterium tuberculosis
[18] = target: Heat shock protein HSP 90-alpha (Homo sapiens, UniProt P07900); assay type: functional, organism-based
[19] = loss of viability in HepG2 cells – cell-based, CellTiter-Glo, cherry-picked, cytotoxicity control for Shn3 inhibitor project, dose response (AID 624134); assay type: functional
[20] = reduction of Shn3 3'UTR-driven luciferase in osteoblasts – cell-based, Clone20 osteoblasts, firefly luciferase, cherry-picked, dose response (AID 624132); assay type: functional;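 also: firefly luciferase luminescence from reporter carrying the Shn3 3'UTR in osteoblasts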
[21] = target: T6, Rac GTPase-activating protein 1 (Homo sapiens, UniProt Q9H0H5); experiment: blockers of MgcRacGAP-driven Rac1 GTP hydrolysis – biochemical, ADP Hunter fluorescence, primary and confirmatory, confirmation (AID 624330); assay type: functional
T6 sequence (Q9H0H5 whole entry): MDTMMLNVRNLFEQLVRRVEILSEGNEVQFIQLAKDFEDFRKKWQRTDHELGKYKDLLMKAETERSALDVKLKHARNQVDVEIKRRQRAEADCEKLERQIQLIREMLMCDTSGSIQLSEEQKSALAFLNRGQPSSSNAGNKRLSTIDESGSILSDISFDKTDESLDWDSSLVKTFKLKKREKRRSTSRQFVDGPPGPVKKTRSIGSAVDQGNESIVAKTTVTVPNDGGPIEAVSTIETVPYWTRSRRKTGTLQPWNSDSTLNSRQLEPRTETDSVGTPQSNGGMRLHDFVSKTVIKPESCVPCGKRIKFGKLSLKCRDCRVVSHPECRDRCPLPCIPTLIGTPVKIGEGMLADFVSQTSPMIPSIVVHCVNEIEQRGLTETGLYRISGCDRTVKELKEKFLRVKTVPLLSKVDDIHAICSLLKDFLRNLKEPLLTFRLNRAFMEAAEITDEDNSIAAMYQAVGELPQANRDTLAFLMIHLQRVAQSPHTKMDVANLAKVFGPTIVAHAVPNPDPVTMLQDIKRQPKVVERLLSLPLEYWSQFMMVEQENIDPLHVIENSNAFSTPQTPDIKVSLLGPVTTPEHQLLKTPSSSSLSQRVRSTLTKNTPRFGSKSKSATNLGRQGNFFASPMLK

DNA dC->dU-editing enzyme APOBEC-3A, sequence (P31941 whole entry): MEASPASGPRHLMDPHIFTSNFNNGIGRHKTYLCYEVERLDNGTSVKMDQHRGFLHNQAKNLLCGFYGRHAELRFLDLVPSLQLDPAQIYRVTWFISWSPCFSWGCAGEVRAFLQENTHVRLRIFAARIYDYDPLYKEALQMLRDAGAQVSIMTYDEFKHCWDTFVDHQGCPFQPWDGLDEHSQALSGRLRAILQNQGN
Beta-galactosidase, sequence (Q8VNN2 whole entry): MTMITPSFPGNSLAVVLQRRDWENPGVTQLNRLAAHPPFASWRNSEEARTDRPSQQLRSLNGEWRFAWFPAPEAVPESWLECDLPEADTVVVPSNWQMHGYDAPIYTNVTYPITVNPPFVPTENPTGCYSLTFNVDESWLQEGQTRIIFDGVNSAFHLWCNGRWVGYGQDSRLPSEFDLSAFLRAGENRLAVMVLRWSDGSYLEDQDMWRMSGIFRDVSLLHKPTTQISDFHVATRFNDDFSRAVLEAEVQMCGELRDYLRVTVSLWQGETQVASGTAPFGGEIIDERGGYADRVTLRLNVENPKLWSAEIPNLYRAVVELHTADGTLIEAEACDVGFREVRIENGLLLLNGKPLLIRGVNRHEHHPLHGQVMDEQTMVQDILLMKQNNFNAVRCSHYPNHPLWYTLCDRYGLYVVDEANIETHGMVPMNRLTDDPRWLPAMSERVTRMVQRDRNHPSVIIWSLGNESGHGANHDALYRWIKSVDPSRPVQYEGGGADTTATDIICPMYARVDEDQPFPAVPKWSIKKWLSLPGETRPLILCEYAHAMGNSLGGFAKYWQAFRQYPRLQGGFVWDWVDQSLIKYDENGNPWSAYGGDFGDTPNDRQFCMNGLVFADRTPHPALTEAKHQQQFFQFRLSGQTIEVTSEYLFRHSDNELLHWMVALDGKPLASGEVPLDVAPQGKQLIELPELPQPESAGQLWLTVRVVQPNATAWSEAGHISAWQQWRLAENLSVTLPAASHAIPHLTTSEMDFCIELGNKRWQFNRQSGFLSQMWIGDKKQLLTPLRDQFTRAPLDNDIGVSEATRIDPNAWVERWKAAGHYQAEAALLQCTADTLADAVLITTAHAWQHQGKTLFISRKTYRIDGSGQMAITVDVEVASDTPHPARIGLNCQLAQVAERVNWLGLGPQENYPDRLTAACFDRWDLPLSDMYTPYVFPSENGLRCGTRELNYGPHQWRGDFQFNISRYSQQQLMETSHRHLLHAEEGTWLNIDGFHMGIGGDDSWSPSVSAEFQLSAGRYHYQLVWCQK
G-protein coupled receptor 55, sequence (Q9Y2T6 whole entry): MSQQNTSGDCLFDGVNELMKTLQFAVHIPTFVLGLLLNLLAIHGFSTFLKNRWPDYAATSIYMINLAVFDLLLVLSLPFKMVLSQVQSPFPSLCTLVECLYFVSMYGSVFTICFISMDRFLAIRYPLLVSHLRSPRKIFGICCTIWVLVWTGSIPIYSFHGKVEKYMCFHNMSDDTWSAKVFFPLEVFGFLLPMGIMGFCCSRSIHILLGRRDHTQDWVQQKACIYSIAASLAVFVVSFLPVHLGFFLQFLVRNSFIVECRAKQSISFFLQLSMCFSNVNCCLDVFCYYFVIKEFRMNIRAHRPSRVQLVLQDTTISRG
DNA dC->dU-editing enzyme APOBEC-3G, sequence (Q9HC16 whole entry): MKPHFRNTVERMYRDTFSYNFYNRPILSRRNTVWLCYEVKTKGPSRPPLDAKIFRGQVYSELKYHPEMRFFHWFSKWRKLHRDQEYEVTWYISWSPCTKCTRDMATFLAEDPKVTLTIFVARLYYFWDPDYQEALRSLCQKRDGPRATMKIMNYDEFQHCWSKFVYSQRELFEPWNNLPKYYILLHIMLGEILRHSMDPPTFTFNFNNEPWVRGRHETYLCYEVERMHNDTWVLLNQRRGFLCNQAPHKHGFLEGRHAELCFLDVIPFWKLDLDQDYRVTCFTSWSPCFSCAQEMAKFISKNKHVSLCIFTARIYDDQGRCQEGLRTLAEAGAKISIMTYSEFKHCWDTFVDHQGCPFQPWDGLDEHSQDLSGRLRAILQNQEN
Large T antigen, sequence (P03070 whole entry): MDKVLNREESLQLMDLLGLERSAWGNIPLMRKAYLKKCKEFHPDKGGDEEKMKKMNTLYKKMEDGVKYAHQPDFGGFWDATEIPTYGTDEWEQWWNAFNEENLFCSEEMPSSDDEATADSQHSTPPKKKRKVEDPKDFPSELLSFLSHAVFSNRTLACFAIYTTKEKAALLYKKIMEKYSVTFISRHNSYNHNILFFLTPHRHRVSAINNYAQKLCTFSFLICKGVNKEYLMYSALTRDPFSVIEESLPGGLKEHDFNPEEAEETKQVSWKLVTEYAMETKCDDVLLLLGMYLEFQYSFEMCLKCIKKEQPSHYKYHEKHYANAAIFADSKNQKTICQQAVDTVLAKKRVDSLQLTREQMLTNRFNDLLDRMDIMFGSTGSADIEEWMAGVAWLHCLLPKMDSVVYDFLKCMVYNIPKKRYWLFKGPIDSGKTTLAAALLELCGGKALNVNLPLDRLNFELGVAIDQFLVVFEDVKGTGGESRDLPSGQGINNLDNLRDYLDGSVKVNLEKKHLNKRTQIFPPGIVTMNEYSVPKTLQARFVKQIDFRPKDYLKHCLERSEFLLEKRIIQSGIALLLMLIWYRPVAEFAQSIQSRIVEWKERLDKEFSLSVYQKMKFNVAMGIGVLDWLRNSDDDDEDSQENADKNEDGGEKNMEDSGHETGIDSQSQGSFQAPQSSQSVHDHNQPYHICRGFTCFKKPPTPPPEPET
Eukaryotic translation initiation factor 4E, sequence (P63073 whole entry): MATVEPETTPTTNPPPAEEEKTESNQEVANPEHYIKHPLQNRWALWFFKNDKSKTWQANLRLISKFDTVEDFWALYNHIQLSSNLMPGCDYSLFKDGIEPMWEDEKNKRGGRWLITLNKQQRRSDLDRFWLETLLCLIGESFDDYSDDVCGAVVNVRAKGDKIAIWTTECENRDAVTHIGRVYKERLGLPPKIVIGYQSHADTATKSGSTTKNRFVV
Glucose-6-phosphate 1-dehydrogenase, sequence (P11413 whole entry): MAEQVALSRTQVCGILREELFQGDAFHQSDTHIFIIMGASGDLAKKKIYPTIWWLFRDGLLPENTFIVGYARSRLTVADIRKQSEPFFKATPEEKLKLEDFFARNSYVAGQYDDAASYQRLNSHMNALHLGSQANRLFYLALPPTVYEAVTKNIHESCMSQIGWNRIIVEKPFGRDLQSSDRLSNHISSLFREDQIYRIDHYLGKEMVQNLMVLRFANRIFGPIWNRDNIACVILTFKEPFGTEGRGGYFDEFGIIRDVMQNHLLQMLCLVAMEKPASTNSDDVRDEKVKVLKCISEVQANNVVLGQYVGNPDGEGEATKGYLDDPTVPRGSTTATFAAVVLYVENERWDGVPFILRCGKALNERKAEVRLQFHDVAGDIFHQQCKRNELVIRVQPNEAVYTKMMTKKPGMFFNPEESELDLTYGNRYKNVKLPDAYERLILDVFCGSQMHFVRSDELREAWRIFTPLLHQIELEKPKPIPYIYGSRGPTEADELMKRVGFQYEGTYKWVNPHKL

COc1cccc(-c2nnc(NC(=O)c3ccc(Cl)s3)o2)c1
IC50 (H9c2): > 79 µM (inactive) | IC50 (Beta-galactosidase): > 66.6 µM (inactive)

CN1c2ccccc2C(C)(C)C12CC(c1ccc(S(=O)(=O)N3CCCCC3)cc1)=NO2 (stereo not drawn)
IC50 (cells): 12 µM (active) | IC50 (Vero): 4.14 µM (active) | CC50 [1]: 6.73 µM (active)

CCOC(=O)c1c(C)oc2c(F)c(F)c(F)c(F)c2c1=O
EC50 [2]: 1.49 µM (active) | EC50 [3]: 1.55 µM (active) | AC50 [4]: 2.32 µM (active) | AC50 [5]: 1.26 µM (active)

O=C(CSc1nc2ccsc2c(=O)n1Cc1ccc(C(=O)O)cc1)NCC1CCCO1 (stereo not drawn)
IC50 (Bcl-2-related protein A1): > 20 µM (inactive) | IC50 [6]: 17.5 µM (active)

O=C(Nc1cc(S(=O)(=O)N2CCOCC2)ccc1N1CCOCC1)c1cc2c(s1)CCC2
EC50 [7]: 6.36 µM (active)

CCCc1cc(-c2n[nH]c(=S)n2CC)cs1
IC50 [8]: 6.08 µM (active) | IC50 [9]: > 100 µM (inactive)

CCN(CC)CCn1c(NC(=O)c2ccccc2O)nc2ccccc21
IC50 (Beta-galactosidase): > 66.6 µM (inactive)

CCN(CC)S(=O)(=O)c1ccc2c(c1)nc(CCC(=O)Nc1cccc(C(F)(F)F)c1)n2CC
EC50 [7]: 7.88 µM (active)

CCN(CC)CCNC(=O)CCCCn1c(=S)[nH]c2c([nH]c3ccc(OC)cc32)c1=O
IC50 [8]: 2.5 µM (active) | IC50 [10]: > 80 µM (inactive) | IC50 [9]: > 100 µM (inactive) | IC50 (Large T antigen): 8.17 µM (active) | IC50 [11]: > 64 µM (inactive)

CN(C)c1nc(N/N=C\c2ccc(Cl)c([N+](=O)[O-])c2)nc(Nc2ccc(F)cc2)n1
IC50 (Estrogen receptor): > 50 µM (not active)

c1csc(-c2nc3c4ccccc4c4ccccc4c3[nH]2)c1
IC50 (cells): 5.21 µM (active)

Cc1nc(SCc2ccc(F)cc2)c2oc3ccccc3c2n1
EC50 [7]: > 32 µM (inactive)

Clc1ccccc1-c1nc2ccccc2[nH]1
EC50 [12]: 0.36 µM (active) | EC50 [7]: 2.24 µM (active) | EC50 (H4): 13.7 µM (active) | EC50 [13]: 0.289 µM (active)

COc1ccccc1NC(=O)Nc1nc(C(C)(C)C)cs1
IC50 (cells): 30.3 µM (active) | CC50 [1]: > 50 µM (active) | IC50 [6]: > 20 µM (inactive)

CN(c1ccccc1)c1ccc(/C=C/[N+](=O)[O-])cc1
EC50 [14]: 5.04 µM (inconclusive) | AC50 (INS1): 6.67 µM (active) | CC50 [15]: 38.5 µM (active) | AC50 [16]: 17.5 µM (active) | CC50 [17]: 25.9 µM (active) | AC50 [18]: 8.67 µM (active) | AC50 [19]: 18 µM (active) | AC50 [20]: 5.79 µM (active) | IC50 [21]: 23.3 µM (active) | IC50 (Beta-galactosidase): > 66.6 µM (inactive)

O=[N+]([O-])c1cc2c(cc1/C=N/n1c(S)nnc1-c1ccccc1)OCO2
IC50 [8]: 1.89 µM (active) | IC50 [9]: > 100 µM (inactive)

Source: ChEMBL document CHEMBL1201862, “PubChem BioAssay data set” (2004)
